The ED50 is the midpoint of the dose-response relation. Higher therefore signals weaker potency.

In the first test the test system is Mus musculus. The test is described as follows: Dose required to produce a 50% elevation in seizure threshold after oral administration. The test is classed as functional.
Conditions: not given
On to `NC(=O)N1c2ccccc2C=Cc2ccccc21` [CARBAMAZEPINE], for which it took a dose of 12.7 mg/kg to reach the 50% effect level (ED50).
`CCC1(c2ccccc2)C(=O)NC(=O)NC1=O` [PHENOBARBITAL] showed an ED50 of 10.6 mg/kg.

The next test has as its system Mus musculus. The test is described as follows: Change in threshold voltage (applied via a subcutaneous and a buccal electrode) for inducing tonic hind limb extension seizures in 50% (CV50) in mouse MEST model at a dose of 30 mg/kg orally. It counts as functional, Hindlimb. Conditions: route oral.
Regarding `CC1(C)Oc2ccc(-c3ccccc3)cc2C(NC(=O)c2ccc(F)cc2)[C@@H]1O` (stereo partly specified), the Change turned out to be 20%.
On the same count and under the same terms, with `CN(C(=O)c1ccc(F)cc1)C1c2cc(C#N)ccc2OC(C)(C)[C@H]1O` (stereo partly specified) the figure was 26%; with `CC1(C)Oc2ccc(C#N)cc2C(NC(=O)c2ccc(C#N)cc2)[C@@H]1O` (stereo partly specified), 7%; with `CC1(C)Oc2ccccc2C(NC(=O)c2ccc(F)cc2)[C@@H]1O` (stereo partly specified), 13%.
For the compound `CC(C)c1ccc2c(c1)C(NC(=O)c1ccc(F)cc1)[C@H](O)C(C)(C)O2` (stereo partly specified), the Change is on record as 19%.
The same measure, in the same setting: with `COc1ccc2c(c1)C(NC(=O)c1ccc(F)cc1)[C@H](O)C(C)(C)O2` (stereo partly specified) the figure was 28%; with `CC1(C)Oc2ccc(C#N)cc2C(NC(=O)c2ccc(O)cc2)[C@@H]1O` (stereo partly specified), -2%.

In the next test the test system is Mus musculus. Put plainly: Change in threshold voltage (applied via a subcutaneous and a buccal electrode) for inducing tonic hind limb extension seizures in 50% (CV50) in mouse MEST model at a dose of 10 mg/kg intraperitoneally 30 min pretest.
Conditions: not given
The test is classed as functional, Hindlimb.
For `CC1(C)Oc2ccc(C#N)cc2C(N2CCCC2=O)C1O` (racemic) [CROMAKALIM], the Change was -16%.

In a further test the test system is Mus musculus. The test is described as follows: Change in threshold voltage (applied via a subcutaneous and a buccal electrode) for inducing tonic hind limb extension seizures in 50% (CV50) in mouse MEST model at a dose of 10 mg/kg orally. The test is classed as functional, Hindlimb. As to conditions: route oral.
Regarding `CC1(C)Oc2ccc(C(F)(F)F)cc2C(NC(=O)c2ccc(F)cc2)[C@@H]1O` (stereo partly specified), the Change came to 33%.
For the compound `CC1(C)Oc2ccncc2C(NC(=O)c2ccc(F)cc2)[C@@H]1O` (stereo partly specified), the Change worked out at 5%.
On the same count and under the same terms, with `CC1(C)Oc2ccc(C#N)cc2C(N2CCCC2=O)C1O` (racemic) [CROMAKALIM] the figure was 4%.

A further test relates to Mus musculus. Put plainly: Increase in threshold voltage (applied via a subcutaneous and a buccal electrode) for inducing tonic hind limb extension seizures in 50% (CV50) in mouse MEST model at a dose of 10 mg/kg orally. It counts as functional, Hindlimb. Conditions: route oral.
For the compound `CC1(C)Oc2ccc(C#N)cc2[C@H](NC(=O)c2ccc(F)cc2)[C@H]1O`, the Change is listed as 41%.
For the compound `CC1(C)Oc2ccc(C#N)cc2[C@@H](NC(=O)c2ccc(F)cc2)[C@@H]1O`, the Change stood at 17%.
On the same count and under the same terms, with `CC1(C)Oc2ccc(C#N)cc2C(NC(=O)c2ccccc2)[C@@H]1O` (stereo partly specified) the figure was 29%; with `CC1(C)Oc2ccc(C#N)cc2[C@H](NC(=O)c2cccc(F)c2)[C@H]1O`, 50%.
Turning to `CC1(C)Oc2ccc(C#N)cc2[C@@H](NC(=O)c2cccc(F)c2)[C@@H]1O`, the Change is on record as 12%.
The same measure, in the same setting: as for `CC(C)(C)c1ccc2c(c1)C(N1CCCC1=O)[C@H](O)C(C)(C)O2` (stereo partly specified), the figure is 12%.
Regarding `CC1(C)C=C(N2CCCC2=O)c2cc(C#N)ccc2O1`, the Change stood at 4%.
For `CC1(C)Oc2ccc(C#N)cc2C(NC(=O)c2ccc(F)cc2)[C@@H]1O` (stereo partly specified), the Change is recorded as 49%.
